Measurements reported in patent US20250304623A1, “PEPTIDES FOR INTRACELLULAR DELIVERY” (UNIVERSIDADE DE SANTIAGO DE COMPOSTELA, priority 2022, published 2025).
*: point of attachment. NHNH2 = NN*

Columns and labels:
Type in all cases: cell-based
[1] = test system: HepG2 cells; test: RLuc pDNA delivery, robotic library screening, HepG2
Experimental: Cells were seeded in a 96 well plate the day before the experiment at a concentration of 60,000 cell/mL (100 μL/w) in DMEM+10% FBS+1% Gln-Abt. For robotic library screening, the delivery of pDNA encoding for the expression of Renilla luciferase gene (RLuc, pRL-CMV (Promega, #E2261)) in six different cell lines was performed. Amphihilic molecule stock solutions in DMSO were diluted with DMEM and freshly mixed with pDNA stock solutions in DMEM prior to transfection experiments, to afford several complexes at different amphiphile concentration (2-10 μM) while maintaining a constant final pDNA concentration of 2 ng/μL. The mixture was shaken for 30 min at room temperature before the addition to the cells. The cell medium was aspirated, and cells were washed twice with PBS. Finally, 50 μL of the complex's solution were added to the cells and incubated for 4 h. After the incubation, the medium was replaced by 100 μL of fresh DMEM supplemented with 10% FBS. 72 hours after transfection the DMEM was removed, cells were washed once with HBSS and 90 μL of HBSS were added to each well. Cells were incubated at 37° C. for 30 minutes. Then basal luminescence levels were read in a plate reader. Immediately, 10 μL of coelenterazine h in HBSS were added to each well (5 μM final concentration) and cells were incubated at 37° C. for 10 minutes. Finally, the total luminescence measurement of the plates was performed. Amphiphile transfection efficiency was compared and normalized to Lipofectamine® 2000 efficiency (value of 1 in Tables 1-5 and 7; bold numbers). All experiments were done in triplicate.
(§1) Tables 1-7: RLuc (pDNA) or EGFP (mRNA) expression levels were normalized to Lipofectamine reagents (value=1) and expressed as fold-times signal increase. In the case of siRNA, the siRNA treated cells fluorescence was compared with siMOCK control fluorescence, while Cas9-RNP mediated knockout was measured against the fluorescence of untreated cells. In both siRNA and Cas9-RNP, values are expressed as % fluorescence reduction. Amphiphile concentration was 5 μM in all cases. All experiments were performed in triplicate.
Tables 8-13 show the mean (triplicates) luminescent intensity (RLU) measured after the transfection of RLuc pDNA by different amphiphiles at different concentrations in a variety of cell lines. Background luminescence values, accounted by untransfected control cells, were subtracted for processing.

[2] = test system: Hek293 cells; test: RLuc pDNA delivery, robotic library screening, Hek293
[3] = test system: Hek293 cells; test: EGFP mRNA delivery, robotic library screening, Hek293
Experimental: Cells were seeded in a 96 well plate the day before the experiment at a concentration of 50,000 cell/mL (100 μL/w) in DMEM+10% FBS+1% Gln-Abt. For robotic library screening, the delivery of EGFP-mRNA (from TriLink, fully substituted with 5-methoxyuridine, capped and polyadenylated; TriLink, CleanCap® EGFP mRNA (5moU), ref. L-7201) in six different cell lines was performed. Amphiphilic molecule stock solutions were prepared in DMSO as described above and diluted in DMEM to afford a range of concentrations. The solutions of EGFP-mRNA/amphiphilic molecule complexes were freshly prepared prior to the transfection experiments. 35 μL of the corresponding amphiphile were added to 10 μL of a solution of EGFP-mRNA at 10 ng/μL in DMEM. The mixture was shaken for 30 min at room temperature before the addition to the cells. The cell medium was aspirated, and cells were washed with PBS twice. Cells were covered with 39 μL of DMEM and 11 μL of the complex's solution were added to the cells and incubated for 4 h (final concentration of peptide=2.5, 5 and 10 μM; final concentration of EGFP-mRNA=25 ng/well). After the incubation, the medium was replaced by 100 μL of fresh DMEM supplemented with 10% FBS. The total EGFP fluorescence was quantified after 72 h in a well plate reader. Amphiphile transfection efficiency was compared and normalized to Lipofectamine® MessengerMax efficiency (value of 1 in Tables 1-5 and 7; double underlined numbers). All experiments were done in triplicate.
as §1
Tables 14-19 show the mean (triplicates) fluorescence intensity measured after the transfection of EGFP mRNA by different amphiphiles at different concentrations in a variety of cell lines. Background fluorescence values, accounted by untreated control cells, were subtracted for processing.

## Ac-RK*LRRLLRK*-NH2 (Ac-RK(NHNH2)LRRLLRK(NHNH2)-NH2; not fully specified; printed as Ac-RK*LRRLLRK*-NH2; also: K*2,K*9: native or modified lysine (ε-amide to a linker)) [Peptide 9.2]
[1]; Dodecanal, 10 μM
  mean luminescent intensity (RLuc pDNA): 5678 RLU
[1]; Dodecanal, 15 μM
  mean luminescent intensity (RLuc pDNA): 2289 RLU
[1]; Myristoleyl, 5 μM
  mean luminescent intensity (RLuc pDNA): 26828 RLU
[1]; Myristoleyl, 10 μM
  mean luminescent intensity (RLuc pDNA): 68860 RLU
[1]; Myristoleyl, 15 μM
  mean luminescent intensity (RLuc pDNA): 46601 RLU
[2]; Dodecanal, 10 μM
  mean luminescent intensity (RLuc pDNA): 32272 RLU
[2]; Dodecanal, 15 μM
  mean luminescent intensity (RLuc pDNA): 18149 RLU
[2]; Oleyl, 15 μM
  mean luminescent intensity (RLuc pDNA): 435 RLU

## Ac-RRLK*RLLRRLK*RL-NH2 (Ac-RRLK(NHNH2)RLLRRLK(NHNH2)RL-NH2; not fully specified; printed as Ac-RRLK*RLLRRLK*RL-NH2; also: K*4,K*11: native or modified lysine (ε-amide to a linker)) [Peptide 13.2]
[3]; Dodecanal, 5 μM
  mean fluorescence intensity (EGFP mRNA): 678
[3]; Dodecanal, 10 μM
  mean fluorescence intensity (EGFP mRNA): 520
[3]; Oleyl, 2.5 μM
  mean fluorescence intensity (EGFP mRNA): 955
[3]; Oleyl, 5 μM
  mean fluorescence intensity (EGFP mRNA): 666
[3]; Oleyl, 10 μM
  mean fluorescence intensity (EGFP mRNA): 791
[2]; Oleyl, 5 μM
  mean luminescent intensity (RLuc pDNA): 83689 RLU
[2]; Oleyl, 10 μM
  mean luminescent intensity (RLuc pDNA): 22447 RLU
[2]; Oleyl, 15 μM
  mean luminescent intensity (RLuc pDNA): 7233 RLU

## Ac-RRLK*RLLRRLK*RLK*RRL-NH2 (Ac-RRLK(NHNH2)RLLRRLK(NHNH2)RLK(NHNH2)RRL-NH2; not fully specified; printed as Ac-RRLK*RLLRRLK*RLK*RRL-NH2; also: K*4,K*11,K*14: native or modified lysine (ε-amide to a linker)) [Peptide 17.3]
[1]; Dodecanal, 5 μM
  mean luminescent intensity (RLuc pDNA): 32417 RLU
[1]; Dodecanal, 10 μM
  mean luminescent intensity (RLuc pDNA): 2293 RLU
[1]; Dodecanal, 15 μM
  mean luminescent intensity (RLuc pDNA): −1196 RLU
[1]; Myristoleyl, 5 μM
  mean luminescent intensity (RLuc pDNA): 39022 RLU
[1]; Myristoleyl, 15 μM
  mean luminescent intensity (RLuc pDNA): −417 RLU
[1]; Oleyl, 5 μM
  mean luminescent intensity (RLuc pDNA): 6483 RLU
[1]; Oleyl, 15 μM
  mean luminescent intensity (RLuc pDNA): −1375 RLU
[1]; Palmitoleyl, 5 μM
  mean luminescent intensity (RLuc pDNA): 63064 RLU
[1]; Palmitoleyl, 15 μM
  mean luminescent intensity (RLuc pDNA): 356 RLU
[2]; Dodecanal, 10 μM
  mean luminescent intensity (RLuc pDNA): 12692 RLU
[2]; Dodecanal, 15 μM
  mean luminescent intensity (RLuc pDNA): 3248 RLU
[2]; Myristoleyl, 5 μM
  mean luminescent intensity (RLuc pDNA): 158771 RLU
[2]; Myristoleyl, 10 μM
  mean luminescent intensity (RLuc pDNA): 4717 RLU
[2]; Myristoleyl, 15 μM
  mean luminescent intensity (RLuc pDNA): −110 RLU
[2]; Palmitoleyl, 5 μM
  mean luminescent intensity (RLuc pDNA): 10403 RLU
[2]; Palmitoleyl, 10 μM
  mean luminescent intensity (RLuc pDNA): 1319 RLU
[2]; Palmitoleyl, 15 μM
  mean luminescent intensity (RLuc pDNA): −644 RLU
